Values of other authors, collected in US11369558B1, “Multi-component nutritional supplement formulations and treatment regimen” (priority 2018, dated 2022).

Conditions: in the human body

C[S+](C)[O-] [DMSO, dimethyl sulfoxide]
Share of DMSO converted to MSM: approximately 15%
